Measured values as given in ChEMBL document CHEMBL1201862, “PubChem BioAssay data set” (2004).
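Briefly, cells in 96-well plates were exposed to five compound concentrations for 48 h, and endpoints were estimated by linear interpolation. The concentration for 50% growth inhibition is given as GI50.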 Activity calls are given as the source filed them. Rule as the data show it: active = GI50 up to about 1.1 µM and inactive = higher.

Experiments:
Assay in all cases: inhibition of tumour cell growth, NCI panel, 48 h
SF-295 = test system: SF-295
HOP-62 = test system: HOP-62
OVCAR-8 = test system: OVCAR-8
KM12 = test system: KM12
TK-10 = test system: TK-10
M14 = test system: M14
CAKI-1 = test system: CAKI-1
SK-MEL-28 = test system: SK-MEL-28
SF-268 = test system: SF-268
SF-539 = test system: SF-539
HCC 2998 = test system: HCC 2998
SW-620 = test system: SW-620
SK-MEL-5 = test system: SK-MEL-5
NCI-H460 = test system: NCI-H460
786-0 = test system: 786-0
SNB-19 = test system: SNB-19
SNB-75 = test system: SNB-75
MDA-MB-435 = test system: MDA-MB-435
Hs-578T = test system: Hs-578T

Measured: GI50

O=C1Cc2c([nH]c3ccccc23)-c2ccccc2N1 [PAULLONE]
inactive: SF-295 37.8 µM | HOP-62 33.7 µM | OVCAR-8 40.1 µM | KM12 18.3 µM | TK-10 > 100 µM | M14 42.5 µM | CAKI-1 42.4 µM | SK-MEL-28 48.8 µM | SF-268 45.2 µM | SF-539 18.3 µM | HCC 2998 19.9 µM | SW-620 28.2 µM | SK-MEL-5 22.8 µM | NCI-H460 34.7 µM | 786-0 75.3 µM | SNB-19 61.4 µM | SNB-75 19.8 µM

Clc1ccc(Cc2nc3cc4ccccc4cc3[nH]2)cc1Cl
inactive: HOP-62 26.1 µM | OVCAR-8 20.1 µM | KM12 16.4 µM | TK-10 19.4 µM | M14 26.2 µM | CAKI-1 18.3 µM | SK-MEL-28 12.6 µM | SF-268 15.9 µM | SF-539 15.5 µM | HCC 2998 18.5 µM | SW-620 17.4 µM | SK-MEL-5 3.93 µM | NCI-H460 6.97 µM | MDA-MB-435 15 µM | 786-0 27 µM | SNB-19 18.7 µM | Hs-578T 21.3 µM | SNB-75 17.3 µM

Oc1nnc(-c2ccc(F)cc2)cc1-c1ccccc1
inactive: SF-295 40.4 µM | OVCAR-8 50.4 µM | KM12 > 100 µM | TK-10 71.4 µM | M14 > 100 µM | CAKI-1 69.5 µM | SK-MEL-28 83.9 µM | SF-268 46.1 µM | SF-539 35.9 µM | HCC 2998 78.5 µM | SW-620 > 100 µM | SK-MEL-5 > 100 µM | NCI-H460 89.7 µM | MDA-MB-435 > 100 µM | 786-0 45.7 µM | SNB-19 44.8 µM | Hs-578T 48.3 µM

Cc1ccc(NC(=O)C2C(=O)N(c3ccc(C)c(C)c3)C(=O)/C2=N/O)cc1C (stereo unspecified)
inactive: SF-295 > 100 µM | HOP-62 > 100 µM | OVCAR-8 > 100 µM | KM12 > 100 µM | TK-10 > 100 µM | M14 > 100 µM | CAKI-1 > 100 µM | SK-MEL-28 > 100 µM | SF-268 > 100 µM | SF-539 > 100 µM | HCC 2998 > 100 µM | SW-620 19.3 µM | SK-MEL-5 > 100 µM | NCI-H460 44.7 µM | 786-0 68.1 µM | SNB-19 > 100 µM | SNB-75 > 100 µM

CC1=NN(c2nc(N)nc(COCc3nc(N)nc(N4N=C(C)CC4(C)C)n3)n2)C(C)(C)C1
inactive: SF-295 > 100 µM | HOP-62 > 100 µM | OVCAR-8 > 100 µM | KM12 > 100 µM | TK-10 > 100 µM | M14 > 100 µM | CAKI-1 > 100 µM | SK-MEL-28 > 100 µM | SF-268 > 100 µM | SF-539 > 100 µM | HCC 2998 > 100 µM | SW-620 > 100 µM | SK-MEL-5 > 100 µM | NCI-H460 > 100 µM | MDA-MB-435 > 100 µM | 786-0 > 100 µM | SNB-19 > 100 µM | Hs-578T > 100 µM | SNB-75 > 100 µM

CCCC12Cc3c(OC)ccc(OC)c3CC(Cc3c(OC)ccc(OC)c31)C2=O (stereo unspecified)
inactive: SF-295 > 100 µM | HOP-62 > 100 µM | OVCAR-8 > 100 µM | KM12 > 100 µM | TK-10 > 100 µM | M14 > 100 µM | CAKI-1 9.64 µM | SK-MEL-28 > 100 µM | SF-268 > 100 µM | SF-539 > 100 µM | HCC 2998 > 100 µM | SW-620 > 100 µM | SK-MEL-5 73.5 µM | NCI-H460 > 100 µM | 786-0 > 100 µM | SNB-19 > 100 µM | SNB-75 > 100 µM

COc1ccc(/C=N/Nc2nc(-c3cc4oc(=O)n(C)c4cc3Cl)cs2)cc1OC
inactive: SF-295 9.23 µM | HOP-62 36.2 µM | OVCAR-8 36.6 µM | KM12 18.8 µM | TK-10 36.7 µM | M14 78.5 µM | CAKI-1 79.3 µM | SK-MEL-28 > 100 µM | SF-268 35.3 µM | SF-539 48.3 µM | HCC 2998 35.6 µM | SW-620 44.1 µM | SK-MEL-5 2.36 µM | NCI-H460 20.7 µM | 786-0 33.4 µM | SNB-19 49.2 µM | SNB-75 28.7 µM

CC(=O)OC1CN2CCC1CC2 (stereo unspecified) [ACECLIDINE]
inactive: SF-295 > 100 µM | HOP-62 > 100 µM | OVCAR-8 > 100 µM | KM12 > 100 µM | TK-10 > 100 µM | M14 > 100 µM | CAKI-1 > 100 µM | SK-MEL-28 > 100 µM | SF-268 > 100 µM | SF-539 > 100 µM | HCC 2998 > 100 µM | SW-620 > 100 µM | SK-MEL-5 > 100 µM | NCI-H460 > 100 µM | MDA-MB-435 > 100 µM | 786-0 > 100 µM | SNB-19 > 100 µM | Hs-578T > 100 µM

COc1ccc(CC(C)NCC(O)c2ccc(O)c(NC=O)c2)cc1 (stereo unspecified)
inactive: SF-295 33.9 µM | HOP-62 > 100 µM | OVCAR-8 > 100 µM | KM12 > 100 µM | TK-10 > 100 µM | M14 > 100 µM | CAKI-1 42.2 µM | SK-MEL-28 > 100 µM | SF-268 > 100 µM | SF-539 > 100 µM | SW-620 > 100 µM | SK-MEL-5 > 100 µM | NCI-H460 > 100 µM | MDA-MB-435 > 100 µM | 786-0 > 100 µM | SNB-19 > 100 µM | Hs-578T > 100 µM | SNB-75 > 100 µM

O=C(O)c1ccc(-c2nc3cc(Cl)ccc3[nH]2)cc1
inactive: SF-295 > 100 µM | HOP-62 > 100 µM | OVCAR-8 > 100 µM | KM12 > 100 µM | M14 > 100 µM | CAKI-1 > 100 µM | SF-539 > 100 µM | HCC 2998 > 100 µM | SW-620 > 100 µM | SK-MEL-5 > 100 µM | 786-0 > 100 µM | SNB-19 > 100 µM | Hs-578T > 100 µM | SNB-75 > 100 µM

COc1ccc(C2SCC(=O)N2c2ccc(-n3c(-c4ccccc4)nc4ccccc4c3=O)cc2)cc1 (stereo unspecified)
inactive: SF-295 > 100 µM | HOP-62 > 100 µM | OVCAR-8 > 100 µM | KM12 90.8 µM | TK-10 > 100 µM | M14 > 100 µM | CAKI-1 > 100 µM | SK-MEL-28 > 100 µM | SF-268 > 100 µM | SF-539 > 100 µM | HCC 2998 60.3 µM | SW-620 > 100 µM | SK-MEL-5 > 100 µM | NCI-H460 > 100 µM | MDA-MB-435 > 100 µM | 786-0 > 100 µM | SNB-19 > 100 µM | Hs-578T > 10 µM | SNB-75 15.8 µM
